Experiment: Inhibition of recombinant rat FAAH deltaTM mutant expressed in Escherichia coli using 14C-labeled oleamide as substrate preincubated for 3 hrs followed by substrate addition and measured by TLC based Dixon-plot analysis
Details: read-out: Ki(app)
Work on `O=C(N1CCCN(Cc2cccc(OCc3ccccc3)c2)CC1)n1cccn1` yielded a Ki of 12 nM. `N#Cc1cnn(C(=O)OCCCCc2ccccc2)c1` showed a Ki of 210 nM. Compound `Cc1cnn(C(=O)N2CCCN(Cc3ccc(Oc4ccccc4)cc3)CC2)c1` has a Ki of 110 nM. Work on `COC(=O)c1cnn(C(=O)N2CCN(Cc3ccc4ccccc4c3)CC2)c1` yielded a Ki of 0.36 nM. `O=C(OCCCCc1ccccc1)n1cccn1` showed a Ki of 710 nM. Work on `Cc1cnn(C(=O)N2CCN(Cc3cccc(Oc4ccccc4)c3)CC2)c1` yielded a Ki of 45 nM. Work on `N#Cc1cnn(C(=O)N2CCCN(Cc3cccc(Oc4ccccc4)c3)CC2)c1` yielded a Ki of 0.23 nM. With `O=C(CCCCc1ccccc1)n1cccn1` the Ki was > 5000 nM. In the case of `Cc1cnn(C(=O)N2CCCN(Cc3cccc(Oc4ccccc4)c3)CC2)c1`, the Ki is reported as 75 nM. In the case of `Cc1cnn(C(=O)OCc2ccc(OCc3ccccc3)cc2)c1`, the Ki is reported as 1260 nM. For `CN(CCN(C)C(=O)n1cc(C#N)cn1)Cc1ccc(Oc2ccccc2)cc1`, the Ki was 2 nM. `N#Cc1cnn(C(=O)N2CCCN(Cc3cccc(OCc4ccccc4)c3)CC2)c1` gave a Ki of 0.7 nM. In the case of `Cc1ccc(CNC(=O)n2cc(C)cn2)cc1`, the Ki is reported as > 5000 nM. Compound `N#Cc1cnn(C(=O)NCCCc2ccccc2)c1` has a Ki of 340 nM. For `CN(CCN(C)C(=O)n1cccn1)C(=O)OC(C)(C)C`, the Ki was 80 nM. With `Cc1cnn(C(=O)OCc2ccc3ccccc3c2)c1` the Ki was > 5000 nM. For `Cc1cnn(C(=O)N2CCCN(Cc3cccc(OCc4ccccc4)c3)CC2)c1`, the Ki was 210 nM. In the case of `N#Cc1cnn(C(=O)NCc2ccc3ccccc3c2)c1`, the Ki is reported as > 5000 nM. For `Cc1ccc(CNC(=O)n2cccn2)cc1`, the Ki was > 5000 nM. For `Cc1cnn(C(=O)NCc2ccc(-c3ccccc3)cc2)c1`, the Ki was > 5000 nM. `N#Cc1cnn(C(=O)N2CCN(Cc3ccccc3)CC2)c1` gave a Ki of 75 nM. Compound `Cc1cnn(C(=O)Cc2ccc3ccccc3c2)c1` has a Ki of 5000 nM. Work on `Cc1cnn(C(=O)NCCCCc2ccccc2)c1` yielded a Ki of 550 nM. With `Cc1cnn(C(=O)OCCCCc2ccccc2)c1` the Ki was > 5000 nM. In the case of `O=C(Nc1ccc2ccccc2c1)n1cccn1`, the Ki is reported as > 5000 nM. `N#Cc1cnn(C(=O)NCCCCCc2ccccc2)c1` gave a Ki of 18 nM. `Cc1cnn(C(=O)N2CCN(Cc3ccc(-c4ccccc4)cc3)CC2)c1` showed a Ki of 170 nM. With `Cc1cnn(C(=O)OCCCCCc2ccccc2)c1` the Ki was > 5000 nM. In the case of `N#Cc1cnn(C(=O)CCCCCc2ccccc2)c1`, the Ki is reported as > 5000 nM. In the case of `CC(C)(C)OC(=O)N1CCN(C(=O)n2cc(C#N)cn2)CC1`, the Ki is reported as 55 nM. In the case of `Cc1cnn(C(=O)Cc2ccc(-c3ccccc3)cc2)c1`, the Ki is reported as > 5000 nM. Compound `CC(C)(C)OC(=O)N1CCCN(C(=O)n2cccn2)CC1` has a Ki of 620 nM. Compound `O=C(NCCCCc1ccccc1)n1cccn1` has a Ki of 290 nM. With `Cc1cnn(C(=O)NCc2ccc(Oc3ccccc3)cc2)c1` the Ki was 290 nM. In the case of `N#Cc1cnn(C(=O)OCc2ccc(-c3ccccc3)cc2)c1`, the Ki is reported as > 5000 nM. In the case of `O=C(OCc1ccc(-c2ccccc2)cc1)n1cccn1`, the Ki is reported as > 5000 nM. Compound `CC(C)(C)OC(=O)N1CCN(C(=O)n2cccn2)CC1` has a Ki of 340 nM. For `N#Cc1cnn(C(=O)Oc2ccc3ccccc3c2)c1`, the Ki was > 5000 nM. In the case of `O=C(OCCCc1ccccc1)n1cccn1`, the Ki is reported as > 5000 nM. For `Cc1cnn(C(=O)OCc2ccc(-c3ccccc3)cc2)c1`, the Ki was > 5000 nM. With `O=C(Cc1ccc(-c2ccccc2)cc1)n1cccn1` the Ki was > 5000 nM. Work on `O=C(NCCCc1ccccc1)n1cccn1` yielded a Ki of 980 nM. With `Cc1cnn(C(=O)N(C)CCN(C)Cc2ccc(Oc3ccccc3)cc2)c1` the Ki was 55 nM. For `N#Cc1cnn(C(=O)NCc2ccc(Oc3ccccc3)cc2)c1`, the Ki was 9.8 nM. In the case of `Cc1cnn(C(=O)NCc2ccc3ccccc3c2)c1`, the Ki is reported as > 5000 nM. For `Cc1cnn(C(=O)Nc2ccc3ccccc3c2)c1`, the Ki was > 5000 nM. With `Cc1cnn(C(=O)CCCCCCc2ccccc2)c1` the Ki was > 5000 nM. `O=C(OCc1ccc(OCc2ccccc2)cc1)n1cccn1` gave a Ki of 260 nM. With `O=C(Oc1ccc2ccccc2c1)n1cccn1` the Ki was > 5000 nM. For `N#Cc1cnn(C(=O)N2CCN(Cc3ccc(-c4ccccc4)cc3)CC2)c1`, the Ki was 0.19 nM. With `N#Cc1cnn(C(=O)Cc2ccc(-c3ccccc3)cc2)c1` the Ki was > 5000 nM. In the case of `CN(CCN(C)C(=O)n1cccn1)Cc1ccc(Oc2ccccc2)cc1`, the Ki is reported as 10 nM. With `Cc1cnn(C(=O)N2CCN(Cc3ccccc3)CC2)c1` the Ki was 250 nM. Compound `Cc1cnn(C(=O)N(C)CCN(C)Cc2cccc(Oc3ccccc3)c2)c1` has a Ki of 20 nM. In the case of `O=C(N1CCN(Cc2ccc3ccccc3c2)CC1)n1cc(I)cn1`, the Ki is reported as 0.29 nM. Compound `O=C(N1CCN(Cc2cccc(Oc3ccccc3)c2)CC1)n1cccn1` has a Ki of 6.1 nM. Work on `CN(CCN(C)C(=O)n1cc(C#N)cn1)C(=O)OC(C)(C)C` yielded a Ki of 16 nM. `N#Cc1cnn(C(=O)OCCCCCc2ccccc2)c1` showed a Ki of 4200 nM. For `O=C(N1CCN(Cc2ccc(Oc3ccccc3)cc2)CC1)n1cccn1`, the Ki was 9.2 nM. In the case of `O=C(CCCCCc1ccccc1)n1cccn1`, the Ki is reported as > 5000 nM. For `N#Cc1cnn(C(=O)CCCCc2ccccc2)c1`, the Ki was > 5000 nM. Work on `N#Cc1cnn(C(=O)N2CCN(Cc3cccc(Oc4ccccc4)c3)CC2)c1` yielded a Ki of 0.19 nM. With `O=C(NCc1ccc(-c2ccccc2)cc1)n1cccn1` the Ki was > 5000 nM. In the case of `O=C(OCc1ccc(Oc2ccccc2)cc1)n1cccn1`, the Ki is reported as 460 nM. In the case of `O=C(N1CCN(Cc2ccc3ccccc3c2)CC1)n1cc(Br)cn1`, the Ki is reported as 0.47 nM. With `N#Cc1cnn(C(=O)OCCCc2ccccc2)c1` the Ki was 3500 nM. `CN(CCN(C)C(=O)n1cccn1)Cc1cccc(Oc2ccccc2)c1` gave a Ki of 5.7 nM. In the case of `O=C(NCc1ccc2ccccc2c1)n1cccn1`, the Ki is reported as > 5000 nM. In the case of `N#Cc1cnn(C(=O)N2CCCN(Cc3ccc(Oc4ccccc4)cc3)CC2)c1`, the Ki is reported as 1 nM. In the case of `Cc1cnn(C(=O)NCCCCCc2ccccc2)c1`, the Ki is reported as 560 nM. For `Cc1cnn(C(=O)CCCCCc2ccccc2)c1`, the Ki was > 5000 nM. In the case of `O=C(N1CCN(Cc2ccc(-c3ccccc3)cc2)CC1)n1cccn1`, the Ki is reported as 12 nM. In the case of `N#Cc1cnn(C(=O)NCc2ccc(-c3ccccc3)cc2)c1`, the Ki is reported as > 5000 nM. Compound `N#Cc1cnn(C(=O)N2CCN(Cc3ccc(Oc4ccccc4)cc3)CC2)c1` has a Ki of 0.1 nM. Work on `Cc1cnn(C(=O)N2CCN(C(=O)OC(C)(C)C)CC2)c1` yielded a Ki of 850 nM. In the case of `Cc1cnn(C(=O)NCCCc2ccccc2)c1`, the Ki is reported as 3000 nM. `N#Cc1cnn(C(=O)OCc2ccc(Oc3ccccc3)cc2)c1` showed a Ki of 60 nM. For `Cc1ccc(CNC(=O)n2cc(C#N)cn2)cc1`, the Ki was > 5000 nM. With `O=C(N1CCCN(Cc2cccc(Oc3ccccc3)c2)CC1)n1cccn1` the Ki was 6.3 nM. With `CN(CCN(C)C(=O)n1cc(C#N)cn1)Cc1cccc(Oc2ccccc2)c1` the Ki was 1.2 nM. In the case of `N#Cc1cnn(C(=O)OCc2ccc(OCc3ccccc3)cc2)c1`, the Ki is reported as 145 nM. Work on `Cc1cnn(C(=O)OCc2ccc(Oc3ccccc3)cc2)c1` yielded a Ki of 580 nM. In the case of `Cc1cnn(C(=O)N2CCCN(C(=O)OC(C)(C)C)CC2)c1`, the Ki is reported as 2900 nM. In the case of `Cc1cnn(C(=O)OCCCc2ccccc2)c1`, the Ki is reported as > 5000 nM. For `N#Cc1cnn(C(=O)CCCCCCc2ccccc2)c1`, the Ki was > 5000 nM. In the case of `N#Cc1cnn(C(=O)OCc2ccc3ccccc3c2)c1`, the Ki is reported as > 5000 nM. `O=C(NCCCCCc1ccccc1)n1cccn1` gave a Ki of 280 nM. Work on `O=C(NCc1ccc(Oc2ccccc2)cc1)n1cccn1` yielded a Ki of 180 nM. With `O=C(OCc1ccc2ccccc2c1)n1cccn1` the Ki was > 5000 nM. For `N#Cc1cnn(C(=O)Cc2ccc3ccccc3c2)c1`, the Ki was > 5000 nM. With `Cc1ccc(COC(=O)n2cc(C#N)cn2)cc1` the Ki was > 5000 nM. For `O=C(N1CCN(Cc2ccccc2)CC1)n1cccn1`, the Ki was 180 nM. Compound `O=C(N1CCCN(Cc2ccc(Oc3ccccc3)cc2)CC1)n1cccn1` has a Ki of 9.3 nM. Work on `O=C(N1CCN(Cc2cccc(OCc3ccccc3)c2)CC1)n1cccn1` yielded a Ki of 5.8 nM. With `Cc1cnn(C(=O)N2CCN(Cc3cccc(OCc4ccccc4)c3)CC2)c1` the Ki was 25 nM. With `Cc1cnn(C(=O)N(C)CCN(C)C(=O)OC(C)(C)C)c1` the Ki was 710 nM. `N#Cc1cnn(C(=O)NCCCCc2ccccc2)c1` gave a Ki of 18 nM. For `O=C(CCCCCCc1ccccc1)n1cccn1`, the Ki was > 5000 nM. For `Cc1ccc(COC(=O)n2cccn2)cc1`, the Ki was > 5000 nM. In the case of `Cc1cnn(C(=O)CCCCc2ccccc2)c1`, the Ki is reported as > 5000 nM. For `N#Cc1cnn(C(=O)N2CCN(Cc3cccc(OCc4ccccc4)c3)CC2)c1`, the Ki was 0.15 nM. With `Cc1ccc(COC(=O)n2cc(C)cn2)cc1` the Ki was > 5000 nM. For `O=C(OCCCCCc1ccccc1)n1cccn1`, the Ki was > 5000 nM. In the case of `Cc1cnn(C(=O)N2CCN(Cc3ccc(Oc4ccccc4)cc3)CC2)c1`, the Ki is reported as 210 nM. In the case of `O=C(Cc1ccc2ccccc2c1)n1cccn1`, the Ki is reported as > 5000 nM. In the case of `Cc1cnn(C(=O)Oc2ccc3ccccc3c2)c1`, the Ki is reported as > 5000 nM. `CC(C)(C)OC(=O)N1CCCN(C(=O)n2cc(C#N)cn2)CC1` gave a Ki of 50 nM. With `N#Cc1cnn(C(=O)Nc2ccc3ccccc3c2)c1` the Ki was > 5000 nM.
